Reference: PMC6451005, “PCC0208027, a novel tyrosine kinase inhibitor, inhibits tumor growth of NSCLC by targeting EGFR and HER2 aberrations” (Scientific Reports, 2019)
Read-outs that look alike come from different tables or passages of the source. Marks after values point to notes of the source that are not given here. Values belong to the molecule of their own block, whether it stands above or below them.

Experiments:
A549 cells = experiment: Cell growth inhibition assay (MTT); format: cell-based, Human; settings: Homo sapiens, read-out: IC50 cell viability
Method: (§1) Human NSCLC cells NCI-H1975, HCC827, Calu-3 and A549were obtained from the Cell Culture Center of the Institute of Basic Medical Sciences, Chinese Academy of Medical Sciences. NCI-H1781 cell line was purchased from Cobioer Biosciences Co., Ltd. With the exception of Calu-3, all cell lines were cultured in RPMI-1640 medium (Gibco, USA) supplemented with 10% fetal bovine serum (FBS) (Gibco, USA). Calu-3 was maintained in Minimum Essential Medium (MEM) supplemented with 10% FBS (Gibco, USA), 5% 100 mM Sodium Pyruvate (Gibco, USA), and 5% Non-Essential Amino Acids Solution (NEAA; Gibco, USA). All cells were incubated at 37 °C with 5% CO2 in air.
(§2) According to the previous report, 5 × 10^3 cells/100 μL were seeded in culture medium in every well in a 96-well plate for 24 hours. […] After 72 h of treatment, MTT (Beyotime Biotechnology, China) was added at a final concentration of […] and incubated for 3 hours. Following that, DMSO was used to dissolve the formazan product and the Molecular Devices SpectraMax M5 microplate reader (Molecular Devices, USA) was used to measure absorbance at 570 nm and IC50 was calculated.

HCC827 xenograft = experiment: Nude mouse xenograft model
HCC827 cells [1] = experiment: Western blot assay; format: cell-based, Human; settings: 24 h, Western blotting
Method: The BCA reagent kit (Beyotime Biotechnology) was used to measure protein content. The cell extracts (50 μg protein) were loaded onto a 4–20% ExpressPlus™ PAGE pre-cast gel (GenScript, China) for electrophoresis before transferring to a PVDF membrane. The membranes were blocked with 5% skimmed milk (prepared using Tris-buffered saline containing 0.05% Tween-20) before incubation with primary antibodies at 4 °C overnight. The membranes were then incubated with HRP-conjugated secondary antibodies at room temperature. The Alphaview SA system and software (version 3.4.0, ProteinSimple, USA) was used for quantitative analysis of the optical density of the bands.

Calu-3 cells = experiment: Cell growth inhibition assay (MTT); format: cell-based; settings: Homo sapiens, read-out: IC50 cell viability
Method: as §1, §2

NCI-H1781 cells = experiment: Cell growth inhibition assay (MTT); format: cell-based; settings: Homo sapiens, read-out: IC50 cell viability
Method: as §1, §2

NCI-H1975 cells = experiment: Cell growth inhibition assay (MTT); format: cell-based; settings: Homo sapiens, read-out: IC50 cell viability
Method: as §1, §2

NCI-H1975 xenograft = experiment: Nude mouse xenograft model; settings: for Body weight (g) Begin / IR (%) inhibition rate of tumor growth (tumor weight) / Body weight (g) End: NCI-H1975 xenograft; for IR (%) inhibition rate of tumor growth (tumor weight): 15 days
Her4 Wild Type = molecular target: T1, Her4 Wild Type (Homo sapiens, UniProt Q15303); experiment: In vitro kinase assay; format: biochemical; settings: WT; n = 2
T1 construct: purchased Invitrogen (Shanghai) Co., Ltd

Her2 Wild Type = molecular target: T2, Her2 Wild Type (Homo sapiens, UniProt P04626); experiment: In vitro kinase assay; format: biochemical; settings: WT; n = 2
T2 construct: purchased Invitrogen (Shanghai) Co., Ltd

HCC827 cells [2] = experiment: Cell growth inhibition assay (MTT); format: cell-based; settings: Homo sapiens; HCC827, EGFR (Del E746_A750); MTT, 72 h; mean ± s.d. (n = 3); read-out: IC50 cell viability
Calu-3 xenograft = experiment: Nude mouse xenograft model; settings: Calu-3 xenograft

T1 sequence (Q15303 26-1308): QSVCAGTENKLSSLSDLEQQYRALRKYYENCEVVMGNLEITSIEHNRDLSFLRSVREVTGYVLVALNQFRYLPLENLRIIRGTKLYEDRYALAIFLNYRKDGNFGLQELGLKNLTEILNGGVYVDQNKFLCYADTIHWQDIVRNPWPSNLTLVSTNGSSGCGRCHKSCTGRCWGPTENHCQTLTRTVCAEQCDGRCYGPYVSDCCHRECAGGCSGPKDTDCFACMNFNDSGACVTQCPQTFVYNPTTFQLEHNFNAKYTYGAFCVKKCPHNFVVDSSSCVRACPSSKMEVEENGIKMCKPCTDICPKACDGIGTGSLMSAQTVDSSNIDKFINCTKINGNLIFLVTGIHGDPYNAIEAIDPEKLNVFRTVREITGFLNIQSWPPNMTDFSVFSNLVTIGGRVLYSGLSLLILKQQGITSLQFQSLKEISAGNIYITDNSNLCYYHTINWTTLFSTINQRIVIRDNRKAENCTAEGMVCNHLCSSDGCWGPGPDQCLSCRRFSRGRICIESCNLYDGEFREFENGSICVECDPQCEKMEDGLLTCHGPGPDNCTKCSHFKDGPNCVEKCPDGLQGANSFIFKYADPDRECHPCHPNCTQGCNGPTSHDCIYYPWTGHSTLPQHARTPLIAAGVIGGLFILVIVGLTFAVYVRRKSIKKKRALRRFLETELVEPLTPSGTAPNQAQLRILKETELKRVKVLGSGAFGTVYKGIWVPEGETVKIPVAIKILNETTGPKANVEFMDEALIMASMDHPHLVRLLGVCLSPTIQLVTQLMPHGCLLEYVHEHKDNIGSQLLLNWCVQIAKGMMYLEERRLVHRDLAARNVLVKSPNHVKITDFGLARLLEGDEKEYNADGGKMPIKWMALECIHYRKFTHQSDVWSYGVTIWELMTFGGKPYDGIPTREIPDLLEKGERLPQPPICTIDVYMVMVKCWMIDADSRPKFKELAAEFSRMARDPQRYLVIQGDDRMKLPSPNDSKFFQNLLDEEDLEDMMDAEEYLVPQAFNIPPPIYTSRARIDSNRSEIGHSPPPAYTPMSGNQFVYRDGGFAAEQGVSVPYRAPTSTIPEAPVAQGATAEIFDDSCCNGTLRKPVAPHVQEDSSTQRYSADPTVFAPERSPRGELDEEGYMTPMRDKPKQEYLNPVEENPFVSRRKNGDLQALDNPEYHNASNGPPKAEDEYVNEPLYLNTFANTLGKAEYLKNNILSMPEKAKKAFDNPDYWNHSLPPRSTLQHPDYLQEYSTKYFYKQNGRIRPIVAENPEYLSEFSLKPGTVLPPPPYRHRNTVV
T2 sequence (P04626 23-1255): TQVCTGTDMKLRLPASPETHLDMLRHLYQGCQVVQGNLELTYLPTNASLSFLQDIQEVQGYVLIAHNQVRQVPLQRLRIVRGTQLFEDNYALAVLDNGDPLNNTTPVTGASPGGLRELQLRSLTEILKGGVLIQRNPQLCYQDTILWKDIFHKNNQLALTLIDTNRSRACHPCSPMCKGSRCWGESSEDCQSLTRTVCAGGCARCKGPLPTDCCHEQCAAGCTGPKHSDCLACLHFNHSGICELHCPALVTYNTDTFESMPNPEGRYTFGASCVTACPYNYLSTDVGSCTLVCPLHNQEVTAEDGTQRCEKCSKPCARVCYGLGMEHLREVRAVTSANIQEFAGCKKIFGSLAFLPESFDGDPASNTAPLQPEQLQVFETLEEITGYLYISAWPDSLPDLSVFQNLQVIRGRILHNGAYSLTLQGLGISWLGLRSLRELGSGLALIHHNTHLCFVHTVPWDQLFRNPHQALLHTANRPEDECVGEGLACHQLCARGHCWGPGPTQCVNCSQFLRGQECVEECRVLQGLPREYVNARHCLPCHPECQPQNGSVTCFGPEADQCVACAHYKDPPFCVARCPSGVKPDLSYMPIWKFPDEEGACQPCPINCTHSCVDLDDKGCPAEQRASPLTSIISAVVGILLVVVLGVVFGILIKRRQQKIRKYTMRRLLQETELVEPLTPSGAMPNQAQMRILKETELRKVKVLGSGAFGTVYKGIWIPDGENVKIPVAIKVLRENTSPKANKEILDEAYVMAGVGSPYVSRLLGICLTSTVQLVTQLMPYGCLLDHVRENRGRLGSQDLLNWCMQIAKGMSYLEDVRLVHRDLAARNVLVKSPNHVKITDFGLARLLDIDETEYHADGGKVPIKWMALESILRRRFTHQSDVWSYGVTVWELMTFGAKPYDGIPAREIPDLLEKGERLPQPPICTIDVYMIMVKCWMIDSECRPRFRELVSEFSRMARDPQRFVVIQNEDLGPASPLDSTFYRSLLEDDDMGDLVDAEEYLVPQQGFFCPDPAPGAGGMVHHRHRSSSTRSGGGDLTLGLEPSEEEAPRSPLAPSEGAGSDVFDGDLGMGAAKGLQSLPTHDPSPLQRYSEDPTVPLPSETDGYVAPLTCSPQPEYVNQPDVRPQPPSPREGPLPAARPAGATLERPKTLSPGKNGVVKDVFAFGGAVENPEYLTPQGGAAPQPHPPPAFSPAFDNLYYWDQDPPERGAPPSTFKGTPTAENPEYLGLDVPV

- IC50 (A549 cells; A549, 72 h): > 1000 nM
- decrease of body weight of animals (HCC827 xenograft; HCC827 xenograft models): more than 20%
- IC50 (Calu-3 cells; Calu-3, 72 h): > 1000 nM
- IC50 (NCI-H1781 cells; NCI-H1781, 72 h): > 1000 nM
- IC50 (NCI-H1975 cells; NCI-H1975, 72 h): > 1000 nM
Structure (SMILES): C#Cc1cccc(Nc2ncnc3cc(OCCOC)c(OCCOC)cc23)c1 [Erlotinib]
- number of p-EGFR and Ki67 positive cells in tumor tissues (HCC827 xenograft; HCC827 xenograft model, IHC, vs control group): strongly decreased
- Body weight (g) Begin (HCC827 xenograft; HCC827 xenograft, 100 mg/kg/day group): 17.65 ± 0.95 g
- Body weight (g) End (HCC827 xenograft; HCC827 xenograft, 100 mg/kg/day oral): 13.82 ± 0.75 g
- Phosphorylation of EGFR and its downstream AKT and ERK (HCC827 cells [1]): inhibited
- tumor growth (in words) (NCI-H1975 xenograft; NCI-H1975 xenograft models, vs. control group): did not inhibit tumor growth
- Body weight (g) Begin (NCI-H1975 xenograft; 100 mg/kg/day group): 16.63 ± 1.02 g
- IR (%) inhibition rate of tumor growth (tumor weight) (NCI-H1975 xenograft; 100 mg/kg/day oral): 29.78%
- Body weight (g) End (NCI-H1975 xenograft; 100 mg/kg/day oral): 14.54 ± 1.10 g

- IC50 (Her4 Wild Type): 0.18 nM
- IC50 (Her2 Wild Type): 0.07 nM
- IC50 (A549 cells; A549, K-ras mutation (G12S), MTT, 72 h, mean ± s.d. (n = 3)): > 1000 nM
- IC50 (HCC827 cells [2]): 1.72 ± 0.32 nM
- IC50 (Calu-3 cells; Calu-3, HER-2 (WT, amplified), MTT, 72 h, mean ± s.d. (n = 3)): 2.47 ± 0.52 nM
- IC50 (NCI-H1781 cells; NCI-H1781, HER-2 (G776V, Cins), MTT, 72 h, mean ± s.d. (n = 3)): 6.17 ± 0.42 nM
- IC50 (NCI-H1975 cells; NCI-H1975, EGFR (L858R/T790M), MTT, 72 h, mean ± s.d. (n = 3)): 8.78 ± 3.03 nM
Structure (SMILES): C=CC(=O)N1CCC(Oc2cc3c(Nc4ccc(Cl)c(Cl)c4F)ncnc3cc2OC)CC1 [Poziotinib]
- Body weight (g) Begin (HCC827 xenograft; HCC827 xenograft, 1 mg/kg/day group): 17.55 ± 0.96 g
- IR (%) inhibition rate of tumor growth (tumor weight) (HCC827 xenograft; HCC827 xenograft, 1 mg/kg/day oral, 15 days): 93.25^*** %
- Body weight (g) End (HCC827 xenograft; HCC827 xenograft, 1 mg/kg/day oral): 17.21 ± 0.90 g
- Body weight (g) Begin (Calu-3 xenograft; 2.5 mg/kg/day group, begin): 17.72 ± 0.73 g
- IR (%) inhibition rate of tumor growth (tumor weight) (Calu-3 xenograft; 2.5 mg/kg/day oral, 15 days): 77.16^*** %
- Body weight (g) End (Calu-3 xenograft; 2.5 mg/kg/day oral, end): 16.36 ± 0.92 g
- Body weight (g) Begin (NCI-H1975 xenograft; 2.5 mg/kg/day group): 16.44 ± 0.69 g
- IR (%) inhibition rate of tumor growth (tumor weight) (NCI-H1975 xenograft; 2.5 mg/kg/day oral): 98.18^*** %
- Body weight (g) End (NCI-H1975 xenograft; 2.5 mg/kg/day oral): 14.62 ± 0.67 g
